How the values were obtained:
[1] = system: H1650 lung cancer cells; experiment: Cell viability assay (MTT), H1650 lung cancer cells; type: cell-based; settings: Homo sapiens, NCI-H1650; for GI50: H1650 cells; for IC50: H1650 lung cancer cells, 48 h drug treatment, MTT
Procedure: Cell Viability Assays (IC50 Determination)
Cell viability assays were performed according to Denizot, F. and R. Lang, Journal of Immunological Methods, 1986. 89(22): p. 271-277. H1650 lung cancer cells were plated at 150,000 cells per well in a 12 well plate. Twenty-four hours after plating, cells were treated as described with increasing concentrations of drug and control. Forty-eight hours after drug treatment, cells were treated with 100 μL of 3-(4,5-Dimethylthiazol-2-yl)-2,5-diphenyltetrazolium bromide (MTT) and incubated for 2 hours at 37 C. The MTT solution was subsequently replaced with 300 μL of n-propyl alcohol and re-aliquoted to a 96 well plate. Spectrophotometric analysis of each solution was performed using a 96 well plate reader at 600 nm in triplicate.

[2] = system: H1650 cells; experiment: Colony formation (clonogenic) assay, H1650 cells; type: cell-based; settings: Homo sapiens, NCI-H1650, 192 h; H1650, harvested 8 days after initial treatment
Procedure: (§1) Protocol for clonogenic assay follows Sangodkar et al., J Clin Invest 2012; 122:2637-51.
(§2) Cell culture and staining: For both A549luc and H1650 cells, 500 cells are seeded into each well of a 6-well plate and allowed to attach for 24 hours before drug treatment. The following day, cells are treated with either the appropriate dose of drug or an equivalent volume of DMSO (two replicates were treated for each condition). For each condition, depleted media was replaced with fresh media containing the equivalent drug dose four days after initial treatment. Cells are harvested either 7 (A549 luc) or 8 (H1650) days after initial treatment. Briefly, medium is aspirated from each well and the cells are washed twice with ice-cold PBS, then plates are allowed to dry at room temperature for 4 hours. Cells are fixed for one hour in a fixing solution consisting of 10% methanol and 10% glacial acetic acid in distilled water, then stained overnight in 1% (w/v) crystal violet dissolved in methanol. The next day, staining solution is aspirated from the wells and plates are washed gently with distilled water to remove excess stain before colony counting. Colonies are imaged on a ChemiDoc XRS+ (Bio-Rad) and images are exported as 8-bit TIFF files. Colonies are counted using the Colony Counter plugin in ImageJ, with colony size defined as between 4 and 400 square pixels, and minimum circularity set at 0.6. Duplicate wells are averaged to obtain a single value for each condition. Results (number of colonies) for A549 luc cells and results (number of colonies) for H1650 cells may be analyzed separately.

[3] = system: A549luc cells; experiment: Colony formation (clonogenic) assay, A549luc cells; type: cell-based; settings: Homo sapiens, 168 h; A549 luc, harvested 7 days after initial treatment
Procedure: as §1, §2

[4] = system: lung cancer cell line H441; experiment: In vivo cancer model: subcutaneous xenograft of lung cancer cell line H441, tumor volume; design: species or system mice; key to Mean Tumor Volume(T) / Median Tumor Volume(T): tumor volume in mm³; settings: oral gavage, 30 days; for Mean Tumor Volume(T) / Median Tumor Volume(T): in mm³ (unit assumed)
Procedure: (§3) To assess the in vivo effects of the compounds, subcutaneous xenograft of lung cancer cell line H441 was generated. Cells (5×10^6) were injected into the right flank of 6- to 8-week-old male BALB/c nu/nu mice (Charles River, Wilmington, Mass.). Tumor volume was assessed twice a week by caliper measurement. Mice were randomized to treatment groups based on initial tumor volume average of 100 mm^3 per group. Mice were dosed by oral gavage with 15 mg/kg Example 1a QD, 15 mg/kg Example 1a BID, 50 mg/kg Example 1a QD, or 50 mg/kg Example 3a QD. Mouse tumors were measured twice a week for the duration of the study. Mouse body weights were recorded weekly and percentage of mice body weights during treatment was calculated as: weight at each time point/initial weight×100. […] Mice underwent treatment for 30 days and were sacrificed 2 hours after the last dose. Tumors were then excised and cut for both formalin-fixation and snap frozen in liquid nitrogen. […] No statistically significant toxicity was observed as judged from animal body weights of compound treated groups versus vehicle control group as shown in Table B below.

[5] = In vivo cancer model: body weights and signs of toxicity; design: species or system mice; settings: for % T/C (Mean body weight) / % T/C (Median body weight) / Mean body weight / Median body weight: oral gavage; for signs of toxicity (mucous diarrhea, abdominal stiffness and weight loss): oral gavage 15 or 50 mg/kg, 30 days, BALB/c nu/nu mice
Procedure: as §3

[6] = 50 mg/kg QD, H441 xenograft mice

Row | SMILES | GI50 [1] [µM] | IC50 [1] [µM] | GI50 [2] [µM] | GI50 [3] [µM] | % T/C (Mean Tumor Volume) ([4]; 50 mg/kg QD) [%] | % T/C (Median Tumor Volume) ([4]; 50 mg/kg QD) [%] | Mean Tumor Volume(T) ([4]; 50 mg/kg QD, BALB/c nu/nu mice) | Median Tumor Volume(T) ([4]; 50 mg/kg QD) | % T/C (Mean body weight) ([5]; 50 mg/kg QD) [%] | % T/C (Median body weight) ([5]; 50 mg/kg QD) [%] | Median body weight ([5]; 50 mg/kg QD) [g] | Mean body weight [5, 6] [g] | signs of toxicity (mucous diarrhea, abdominal stiffness and weight loss) [5] | further results
1 | O=S(=O)(N[C@@H]1CCCC(N2c3ccccc3Oc3ccccc32)[C@H]1O)c1ccc(OC(F)(F)F)cc1 (mixture of isomers) [Example 1, N-(2-hydroxy-3-(10H-phenoxazin-10-yl)cyclohexyl)-4-(trifluoromethoxy)benzenesulfonamide] | 5 | 5 | 5 | 7.5 |  |  |  |  |  |  |  |  |  | 
2 | O=S(=O)(N[C@@H]1CCCC(n2c3ccccc3c3ccccc32)[C@H]1O)c1ccc(OC(F)(F)F)cc1 (mixture of isomers) [Example 3, (1S,2S,3R)-rel-N-(3-(9H-carbazol-9-yl)-2-hydroxycyclohexyl)-4-(trifluoromethoxy)benzenesulfonamide] | 10 | 10 | 5 | 7.5 |  |  |  |  |  |  |  |  |  | 
3 | O=S(=O)(N[C@@H]1CCC[C@H](N2c3ccccc3Oc3ccccc32)[C@H]1O)c1ccc(OC(F)(F)F)cc1 (single isomer, unassigned) [Example 1a] | 5 |  | 5 | 7.5 | 36.50 | 33.78 | 441.37 | 338.69 | 100.59 | 99.72 | 35.50 | 35.06 | no adverse signs were observed | % T/C (Mean Tumor Volume) ([4]; 15 mg/kg BID): 26.08%; % T/C (Median Tumor Volume) ([4]; 15 mg/kg BID): 27.37%; Mean Tumor Volume(T) ([4]; 15 mg/kg BID): 315.40; Median Tumor Volume(T) ([4]; 15 mg/kg BID): 274.43; % T/C (Mean Tumor Volume) ([4]; 15 mg/kg QD): 61.43%; % T/C (Median Tumor Volume) ([4]; 15 mg/kg QD): 60.69%; Mean Tumor Volume(T) ([4]; 15 mg/kg QD): 742.80; Median Tumor Volume(T) ([4]; 15 mg/kg QD): 608.58; % T/C (Mean body weight) ([5]; 15 mg/kg BID): 95.27%; % T/C (Median body weight) ([5]; 15 mg/kg BID): 99.58%; Mean body weight ([5]; 15 mg/kg BID): 33.20 g; Median body weight ([5]; 15 mg/kg BID): 35.45 g; % T/C (Mean body weight) ([5]; 15 mg/kg QD): 95.27%; % T/C (Median body weight) ([5]; 15 mg/kg QD): 93.68%; Mean body weight ([5]; 15 mg/kg QD): 33.20 g; Median body weight ([5]; 15 mg/kg QD): 33.35 g
4 | O=S(=O)(N[C@H]1CCC[C@@H](N2c3ccccc3Oc3ccccc32)[C@@H]1O)c1ccc(OC(F)(F)F)cc1 (single isomer, unassigned) [Example 1b] | 5 |  | 5 | 7.5 |  |  |  |  |  |  |  |  |  | 
5 | O=S(=O)(N[C@@H]1CCC[C@H](n2c3ccccc3c3ccccc32)[C@H]1O)c1ccc(OC(F)(F)F)cc1 (single isomer, unassigned) [Example 3a] | 10 |  | 5 | 7.5 | 32.13 | 37.62 | 388.47 | 377.21 | 93.96 | 92.70 | 33.00 | 32.74 | no adverse signs were observed | 
6 | O=S(=O)(N[C@H]1CCC[C@@H](n2c3ccccc3c3ccccc32)[C@@H]1O)c1ccc(OC(F)(F)F)cc1 (single isomer, unassigned) [Example 3b] | 10 |  | 7.5 | 10 |  |  |  |  |  |  |  |  |  | 
